Consider four molecules from ChEMBL document CHEMBL3217747, “Discovery and pharmacological characterization of a selective delta opiate receptor antagonist (CP-646,777)” (Medchemcomm, 2011).

The structures appear in SMILES notation.

Data set [1] in a line: In vitro clearance in human liver microsomes. The conditions noted are these: read-out: CLH. Type of data set: ADME.
The next data set concerns the target Mu-type opioid receptor (Homo sapiens, UniProt P35372). Put plainly: Displacement of [3H]diprenorphine from human mu opioid receptor expressed in CHO cells by liquid scintillation counting analysis. Type of data set: cell-based.
For another data set, the system named is MDCK. The experiment in a line: Efflux ratio of apparent permeability across […] in MDCK cells expressing human P-gp. Type of data set: ADME, cell-based, Canis lupus familiaris. The conditions noted are these: dog.
Data set [2] concerns the target T1, Delta-type opioid receptor (Homo sapiens, UniProt P41143). The experiment in a line: Displacement of [3H]diprenorphine from human delta opioid receptor expressed in CHO cells by liquid scintillation counting analysis. Type of data set: cell-based.
The target in data set [3] is T1, Delta-type opioid receptor. Put plainly: Antagonist activity at delta opioid receptor (unknown origin) assessed as [35S]-GTPgammaS binding by liquid scintillation counting analysis. Type of data set: functional.
The target in data set [4] is Kappa-type opioid receptor (Homo sapiens, UniProt P41145). The experiment in a line: Displacement of [3H]diprenorphine from human kappa opioid receptor expressed in CHO cells by liquid scintillation counting analysis. Type of data set: cell-based.
Sequence of Kappa-type opioid receptor (P41145 whole entry): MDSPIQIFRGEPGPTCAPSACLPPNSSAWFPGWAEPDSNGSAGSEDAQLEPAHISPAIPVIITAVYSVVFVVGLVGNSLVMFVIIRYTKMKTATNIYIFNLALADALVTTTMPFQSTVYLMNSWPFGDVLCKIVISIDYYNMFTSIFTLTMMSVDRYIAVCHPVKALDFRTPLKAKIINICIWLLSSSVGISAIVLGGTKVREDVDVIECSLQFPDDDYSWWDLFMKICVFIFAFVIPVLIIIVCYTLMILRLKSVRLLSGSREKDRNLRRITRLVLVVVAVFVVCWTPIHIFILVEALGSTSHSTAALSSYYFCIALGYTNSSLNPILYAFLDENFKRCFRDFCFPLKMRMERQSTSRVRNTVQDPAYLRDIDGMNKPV
Data set [5] is described as follows: Plasma concentration in mouse at 32 mg/kg, sc after 4 hrs. Type of data set: ADME, organism-based. Details: dose 32 mg/kg, route subcutaneous.
The next data set deals with Brain. The experiment in a line: Ratio of drug uptake from wild type P-gp mouse brain to P-gp deficient mouse brain compound treated subcutaneously. Type of data set: ADME. The conditions noted are these: sc.
The subject of data set [6] is Cerebrospinal fluid. The experiment in a line: Drug uptake in rat cerebrospinal fluid at 32 mg/kg, sc. Type of data set: ADME, organism-based. Details: dose 32 mg/kg, route subcutaneous. The conditions noted are these: in vivo, read-out: Drug uptake.
Data set [7] in a line: Fraction unbound in mouse at 32 mg/kg, sc after 4 hrs. Type of data set: ADME, organism-based. Details: dose 32 mg/kg, route subcutaneous. The conditions noted are these: in vivo.
The test system of data set [8] is Cerebrospinal fluid. Put plainly: Drug uptake in rat cerebrospinal fluid at 10 mg/kg, sc. The conditions noted are these: in vivo, read-out: Drug uptake. Type of data set: ADME, organism-based. Details: dose 10 mg/kg, route subcutaneous.
Data set [9] can be described thus: Ratio of plasma concentration in mouse over Ki for human delta opioid receptor. Type of data set: ADME, cell-free.
The species named for a further data set is Mus musculus. The experiment in a line: Reversal of SNC-80 induced hypothermia in ICR mouse assessed as rectal temperature. Type of data set: functional.
Data set [10] is described as follows: Ratio of ED50 for Reversal of SNC-80 induced hypothermia in ICR mouse over Ki for human delta opioid receptor.

Sequence of Mu-type opioid receptor (P35372 whole entry): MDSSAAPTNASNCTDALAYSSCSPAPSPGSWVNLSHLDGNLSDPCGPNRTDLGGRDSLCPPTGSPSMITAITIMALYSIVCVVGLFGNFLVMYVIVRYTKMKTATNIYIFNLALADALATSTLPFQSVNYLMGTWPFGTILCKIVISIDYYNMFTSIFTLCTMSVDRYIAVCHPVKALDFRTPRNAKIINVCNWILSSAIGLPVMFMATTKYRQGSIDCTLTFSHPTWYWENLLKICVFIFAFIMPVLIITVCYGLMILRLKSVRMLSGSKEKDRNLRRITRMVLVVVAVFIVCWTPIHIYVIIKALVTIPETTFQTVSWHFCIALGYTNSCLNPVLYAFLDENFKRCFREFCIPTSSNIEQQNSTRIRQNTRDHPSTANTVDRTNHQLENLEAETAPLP
T1 sequence (P41143 whole entry): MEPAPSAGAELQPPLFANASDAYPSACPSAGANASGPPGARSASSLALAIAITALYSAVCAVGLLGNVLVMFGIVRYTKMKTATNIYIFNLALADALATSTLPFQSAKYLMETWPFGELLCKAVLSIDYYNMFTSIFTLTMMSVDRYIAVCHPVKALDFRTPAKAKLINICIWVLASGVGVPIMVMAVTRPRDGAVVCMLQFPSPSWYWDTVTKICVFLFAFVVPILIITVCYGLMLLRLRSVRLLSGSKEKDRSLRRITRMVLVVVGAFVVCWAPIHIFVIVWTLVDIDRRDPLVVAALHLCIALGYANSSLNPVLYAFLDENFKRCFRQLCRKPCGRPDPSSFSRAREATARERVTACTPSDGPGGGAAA

For the molecule `CCCC(C)CN1CCC(c2ccc(C(=O)N(C)C)cc2)(c2cccc(O)c2)CC1` (stereo not drawn), in [1], the CLint scaled was found to be 80 mL/min/kg. For the same molecule, the Ki on Mu-type opioid receptor was above 890 nM.

With `CCCC(C)CN1CCC(c2cccc(C(N)=O)c2)(c2ncc(C(=O)N(CC)CC)cn2)CC1` (stereo not drawn), the Ratio in the data set on MDCK was determined as 13. In addition, in data set [1], the CLint scaled stood at 13 mL/min/kg. Further, the Ki in data set [2] is 2 nM; on Mu-type opioid receptor, above 890 nM; in [4], 65 nM. In [3], the IC50 stood at 35 nM.

For `CCC[C@@H](C)CN1CCC(c2cccc(O)c2)(c2ncc(C(=O)N(CC)CC)cn2)CC1`, the concentration at 4 h in data set [5] amounted to 7500 nM. For the same molecule, the Ratio was 13 in the data set on MDCK, 6.5 in the data set on Brain, 100 in data set [9] and 15 in data set [10]. For the same molecule, the CLint scaled in data set [1] turned out to be 48 mL/min/kg. In addition, the Ki amounted to 2 nM in data set [2], 830 nM at Mu-type opioid receptor and 142 nM in [4]. In addition, the figures for the concentration with Cerebrospinal fluid [6] and in the data set with Cerebrospinal fluid [8] were 300 nM and 103 nM, respectively. The unbound share (fraction unbound) at 4 h in data set [7] was determined as 0.3. The IC50 in data set [3] amounted to 35 nM. Further, the ED50 in the data set listed under Mus musculus worked out at 3 mg/kg.

Regarding `CCCC(C)CN1CCC(c2cccc(O)c2)(c2ncc(C(=O)N(CC)CC)cn2)CC1` (stereo not drawn), in the data set with MDCK, the Ratio is 13. In addition, the CLint scaled in data set [1] came to 40 mL/min/kg. Besides, the Ki in data set [2] is 6 nM; at Mu-type opioid receptor, above 890 nM; in [4], above 890 nM. In [3], the IC50 turned out to be 21 nM.
